Values joined by “and” are separate entries in the source; they are usually repeats but may differ in a detail not shown here. Equal entries are not always repeated. “Also recorded” adds a separate entry of the source. Structures can show the parent of a compound that is named as a salt.
Columns and labels:
TRPV1 = details: in vivo; cited from earlier work
[1] = test system: cough induction using LPS and citric acid; assay: Animal Experiment 2: antitussive effect in LPS-citric acid cough model (inflammatory cough), guinea pigs; type: in vivo; details: for Cough Frequency / Cough Frequency Suppression Rate, Actual Value / Cough Latency: LPS + 0.2 M citric acid
Method: 160 guinea pigs, 250 g to 300 g each, half-male and half-female, certificate number 20220908Cdzz0412999409, were purchased from Xinjian Rabbit Farm, Dashiju Town, Xinchang County. The animals were reared at the general laboratory facility with 40% to 60% of humidity, and provided with a cycle of 12 h in the dark and 12 h in light. The animals could freely access to water and food. All operations and experimental procedures complied with the “Regulations on Animal Experiment Management.” • Production license: SCXK (Zhejiang) 2020-0005 • Application license: SCXK (Zhejiang) 2021-0019
Currently, there are barely reports on the models of inflammatory coughs in China and other countries. To closely mimic the occurrence of actual coughs in people suffering from acute respiratory infection, a novel inflammatory cough model was explored ahead of the projected experiments. This novel model was based on the citric acid-induced cough model, but the animals were subject to a LPS pretreatment before beginning with the cough provocation of citric acid.
After 5 days of adaptive feeding, the animal was individually placed in a glass bell jar to allow adaptation for 1 min, and then administrated with the compressed aerosol of 0.4 M citric acid solution (instead of physiological saline for the blank control group) for 10 min. The frequency of cough was recorded during administration of the citric acid aerosol. The guinea pigs with a cough frequency of 10-30 were retained for the formal experiments later. The qualified guinea pigs were randomly divided into the corresponding groups (not fewer than 8 in each group) and were subjected to test the inhalation of the nebulized solvent, menthol, eucalyptus oil, or a combination of menthol and eucalyptus oil for 10 min. After an interval of 15 min post inhalation of the test drug, the animals were administered with the aerosol of 1 mg/mL LPS. 4 hours post the LPS nebulization, the animals were subjected to the second inhalation of the nebulized solvent, menthol, eucalyptus oil, or the combination of menthol and eucalyptus oil for 10 min. Fifteen minutes later, the aerosol of 0.2 M citric acid was administered for cough induction, and the process was recorded by video during the inhalation of citric acid. The duration from the inhalation of the nebulized citric acid to the emergence of first cough was designated as the latency. The control group used solvent for nebulization and cough evoking.
• (1) 0.4 M citric acid: Citric acid was accurately weighed, added into an appropriate volume of pure water to make a final concentration of 0.4 mol/L, and completely dissolved by sonication. • (2) 0.2 M citric acid: Citric acid was accurately weighed, added into an appropriate volume of pure water to make a final concentration of 0.2 mol/L, and completely dissolved by sonication. • (3) Codeine: Codeine was accurately weighed, placed in a mortar and grounded repeatedly, added into an appropriate amount of physiological saline and completely dissolved by sonication. • (4) LPS preparation: LPS was accurately weighed, added into an appropriate amount of physiological saline to make a final concentration of 1 mg/mL, and completely dissolved by vortexing. • (5) Preparations of testing drugs: Initially, 4 g of menthol was dissolved in 10 mL of olive oil (menthol group), or 0.45 mL of eucalyptus oil was sufficiently mixed with 9.55 mL of olive oil (eucalyptus oil group). Afterwards, 5 g of soybean lecithin (previously cut into small pieces) was added to 10 mL of olive oil (control group) or each of the drug groups above, and dissolved by slowly stirring to form a uniform oil phase at 42° C. in a water bath. Further, double distilled water was slowly added to each group in oil phase on a magnetic stirrer and fully emulsified by sufficiently stirring to mix the oil phase with water. […]

[2] = test system: sodium citrate-evoked coughs; assay: Animal Experiment 1: antitussive effect in sodium citrate (citric acid)-evoked cough, guinea pigs; type: in vivo; details: for Cough Frequency / Cough Latency / Inhibition Rate of Cough: nebulization 10 min, 0.4 M citric acid; for Inhibition Rate of Cough: original model
Method: 100 guinea pigs, 250 g to 300 g each, half-male and half-female, were purchased from Beijing Vital River Experimental Animal Technology Co., Ltd., referred to Certificate Numbers 110011220104932418, 110011220104932542. The animals were reared at the general laboratory facility with 40% to 60% of humidity, and provided with a cycle of light: 12 h in dark and 12 h in light. The animals could freely access to water and food. All operations and experimental procedures complied with the “Regulations on Animal Experiment Management.”
At the initial screening step, each guinea pig was individually placed in a glass bell jar to allow adaptation for 1 min and then administered with a compressed aerosol of 0.4 M citric acid solution (instead of physiological saline for the blank control group) for 10 min. The frequency of cough was recorded during administration of the aerosol. The guinea pigs with a cough frequency of 10-30 were retained for the formal experiments later. The qualified guinea pigs were randomly divided into the corresponding groups (not fewer than 10 in each group) and were subjected to test the inhalation of the nebulized solvent, menthol, eucalyptus oil, or a combination of menthol and eucalyptus oil for 10 min. After an interval of 10 min post-inhalation of the test drug, 0.4 M citric acid solution was nebulized and given for inhalation, and the cough frequency was recorded by video from the beginning to the end of the administration of citric acid aerosol. The latency of cough is defined as the period from the inhalation of nebulized citric acid to the appearance of the first cough. The videos were recorded during the period of cough provocation in the experiment.
• (1) 0.4 M sodium citrate: Sodium citrate was accurately weighed, added into an appropriate volume of pure water, completely dissolved by sonication, and finally diluted to 0.4 M for use later. • (2) Codeine: Codeine was accurately weighed, grounded sufficiently in a mortar, transferred into an appropriate amount of physiological saline, and dissolved by sonication. • (3) Preparations of testing drugs: Initially, an oil phase was prepared by dissolving 2 g of menthol in 10 mL of olive oil (menthol group); or well mixing 3.6 mL of eucalyptus oil with 6.4 mL of olive oil (eucalyptus oil group); or adding 2 g of menthol and 3.6 mL of eucalyptus oil/0.6 g of menthol and 3.6 mL of eucalyptus oil/2 g of menthol and 1.2 mL of eucalyptus oil respectively in a corresponding volume of olive oil to make a final 10 mL solution (menthol+eucalyptus oil groups). Afterwards, 5 g of soybean lecithin (cut into small pieces beforehand) was added to 10 mL of olive oil (control group) or each of the drug groups above and dissolved by slowly stirring to form a uniform oil phase at 42° C. in a water bath. Further, double distilled water was slowly added to each group in oil phase on a magnetic stirrer and fully emulsified by sufficiently stirring to mix the oil phase with water. A final emulsion was prepared in a volume of 100 mL and could be further diluted to make a working preparation with the specific concentration of drug (or drugs).
All experimental data were expressed as mean±SEM, and the data-processing software SSPS16.0 was used to conduct the analysis of variance and inter-group t-test. The conclusions were made by comprehensively analyzing all data.

[3] = test system: inflammatory factors, such as leukotriene B4 (LTB4), prostaglandin (PGE2), and a variety of cytokines; details: cited from earlier work
asthma = details: clinical trials for asthma; cited from earlier work
coughs = details: in vivo; cited from earlier work
TRPM8 = details: cooling effect; membrane potential depolarization and Ca2+ influx; cited from earlier work
[4] = test system: capsaicin-guinea pig model; details: cited from earlier work
[5] = 2% menthol, 3.6% eucalyptus oil, combinations, or 30 mg/mL codeine phosphate, P<0.01

For COc1cc(CNC(=O)CCCC/C=C/C(C)C)ccc1O [Capsaicin], the “Cough induction by TRPV1 agonists (in words)” value (TRPV1) is listed as “evoke coughs in humans and guinea pigs”.

With O=C(O)CC(O)(CC(=O)O)C(=O)O [Citric acid] the “Cough induction (in words)” value ([1]; 0.2 M citric acid after LPS, P<0.01 vs blank control) was “significantly induce coughs”.

For COc1ccc2c3c1O[C@H]1[C@@H](O)C=C[C@H]4[C@@H](C2)N(C)CC[C@@]341 [Codeine phosphate], the “Cough Frequency” value ([2]; 30 mg/mL codeine phosphate) was 7.90 ± 1.61 times, the “Cough Latency” value ([2]; 30 mg/mL codeine phosphate) was 158.30 ± 17.46 s and the “Inhibition Rate of Cough” value ([2]; 30 mg/mL codeine phosphate) was 57.30 ± 8.70 %. The “Cough Frequency” value ([1]; 30 mg/mL codeine) was 8.44 ± 0.71, the “Cough Frequency Suppression Rate, Actual Value” (from here on “Cough Frequency Suppression Rate”) ([1]; 30 mg/mL codeine) was 55.29 ± 3.86 % and the “Cough Latency” value ([1]; 30 mg/mL codeine) was 134.78 ± 9.72 s.

In the case of CC12CCC(CC1)C(C)(C)O2 [Eucalyptol, 1,8-Cineol], the “Anti-inflammatory effect (in words)” value [3] is given as “effective anti-inflammatory agent”, the “Replacement of glucocorticoids in asthma (in words)” value (asthma) is given as “partially replace the use of glucocorticoids” and the “Antitussive effect in human clinical trials (in words)” value (coughs) is given as “proven to have anti-inflammatory and antitussive effects in clinical trials; also recorded: confirmed in clinical trials”.

In the case of CC(C)[C@@H]1CC[C@@H](C)C[C@H]1O [Menthol, L-1-methyl-4-isopropylcyclohexan-3-ol], the “Effect on frequency of coughs / antitussive effect (in words)” value [2, 5] is reported as “reduced the frequency of coughs; also recorded: reduced the cough frequency; also recorded: show antitussive effects”, the “Effect on latency of coughs (in words)” value [2, 5] is reported as “significantly increased the cough latency” and the “Cough Frequency” value ([2]; 2% menthol) is reported as 11.58 ± 1.72 times. The “Cough Latency” value ([2]; 2% menthol) was 155.50 ± 20.43 s, the “Inhibition Rate of Cough” value ([2]; 2% menthol) was 37.39 ± 9.30% and the “Inhibition Rate of Cough” value ([2]; 2% menthol, listed as menthol) was 37.39% and 37.39 ± 9.30 %. For the same compound, the “Cough Frequency” value ([1]; 0.06% menthol) was 16.50 ± 1.78, the “Cough Frequency Suppression Rate” value ([1]; 0.06% menthol) was 12.65 ± 9.44% and the “Cough Latency” value ([1]; 0.06% menthol) was 104.88 ± 10.85 s. The “Cough Frequency” value ([1]; 0.25% menthol) was 14.88 ± 1.90, the “Cough Frequency Suppression Rate” value ([1]; 0.25% menthol) was 21.25 ± 10.08% and the “Cough Latency” value ([1]; 0.25% menthol) was 88.75 ± 15.96 s. For the same compound, the “Statistical significance of cough suppression (in words)” value ([1]; 1.0% and 4% menthol, 0.15% and 0.45% eucalyptus oil, P<0.01-0.05) was “statistical significance; also recorded: statistically attained the significance in cough suppression”, the “Cough Frequency” value ([1]; 1.0% menthol) was 13.13 ± 0.55 and the “Cough Frequency Suppression Rate” value ([1]; 1.0% menthol) was 28.53 ± 3.00%. The “Cough Latency” value ([1]; 1.0% menthol) was 116.38 ± 11.30 s, the “Cough Frequency Suppression Rate” value ([1]; 1.0% menthol, listed as menthol) was 28.53 ± 3.00 % and the “Cough Frequency” value ([1]; 4.0% menthol) was 11.38 ± 0.82. The “Cough Frequency Suppression Rate” value ([1]; 4.0% menthol) was 39.78 ± 4.35%, the “Cough Latency” value ([1]; 4.0% menthol) was 128.13 ± 13.84 s and the “Cough Frequency Suppression Rate” value ([1]; 4.0% menthol, listed as menthol) was 39.78% and 39.78 ± 4.35 %. For the same compound, the “Effect on frequency of coughs (in words)” value ([1]; menthol 0.06-4%, eucalyptus oil 0.05-0.45%, combinations 0.06-1.0% + 0.05-0.15%, codeine 30 mg/mL) was “reduce the frequency of coughs in a dose-dependent manner”, the “Efficacy on inflammatory coughs compared with original model (in words)” value ([1]; novel LPS-citric acid model vs original citric acid model) was “reduced; also recorded: better activities on non-inflammatory coughs; also recorded: declined” and the “Antitussive effect in human clinical trials (in words)” value (coughs) was “well verified in human clinical trials”. The “Activation of TRPM8 (in words)” value (TRPM8) was “Activation of TRPM8” and the “Antitussive effect on capsaicin-evoked coughs (in words)” value [4] was “effectively suppress coughs; also recorded: significantly suppressed”.

For O=C(O)CC(O)(CC(=O)O)C(=O)O [Sodium citrate], the “Cough induction by TRPV1 agonists (in words)” value (TRPV1) is given as “evoke coughs in humans and guinea pigs” and the “Cough induction (in words)” value ([2]; 0.4 M sodium citrate, P<0.01 vs control) is given as “significantly evoke coughing in guinea pigs”.

Source: patent US20260315563A1, “A NOVEL MENTHOL-EUCALYPTUS OIL ANTITUSSIVE SPRAY AND USE THEREOF” (SINO-SHINE BIOPHARMACEUTICAL CO.,LTD, priority 2023, published 2026)
